Reference: patent EP0974351A2, “Medicament for preventing and treating gastrointestinal damage” (JOUVEINAL, priority 1998, dated 2000)

Columns and labels:
[1] = test system: ethanol-induced gastric lesions; assay: Ethanol-induced gastric lesions in rats; format: in vivo; settings: ethanol alone 41.9 ± 3.7
Procedure: Male Sprague-Dawley rats weighing 240 to 250 g were fasted for 24 hours and allowed free access to water prior to experiment. All test drugs were given intragastrically. Rats were pretreated with different doses of gabapentin at doses of 40 and 60 mg. Thirty minutes later indomethacin (25 mg/kg) was administered. Another group of rats received 10 mg of gabapentin twice, 3 hours apart, followed by indomethacin administration. Three hours after indomethacin treatment, the rats were killed and gastric lesions were assessed. The severity of the lesions were determined by the measurement of the square area (mm^2) of visible lesions.
To determine the effects of gabapentin on ethanol-induced gastric lesions, rats were pretreated with 1 mL of 70% ethanol, followed by gabapentin at a dose of 40 and 60 mg, respectively. Another group of rats were pretreated by 20 mg of gabapentin given twice, 3 hours apart, followed by ethanol administration. Thirty minutes later, all rats were killed and gastric lesions were assessed.

[2] = test system: Audiogenic Convulsions; assay: Audiogenic seizures after ethanol withdrawal in mice; format: in vivo, Male albino mice of the outbred TO strain; settings: for Percentage of Group Showing Clonic Convulsions: Ethanol Diet, 8 hours from ethanol withdrawal, ethanol/saline 80
Procedure: (§1) Male albino mice of the outbred TO strain (Bantin and Kingman, UK) were used in all studies. The weight ranged from 25 to 35 g, with no more than a 5 g range in any single experiment. The mice were housed, eight per cage, at 21°C ± 1°C, with 55 ± 10% relative humidity, and a 12-hour light/dark cycle with the light phase between 09:00 to 21:00. All mice received ad libitum access to tap water and standard laboratory chow (RM-1, Special Diet Services, UK) until their use in experiments or until their diet was replaced with a liquid diet.
(§2) Ethanol was administered in a liquid diet schedule. All mice received control diet for an initial 2-day period. Ethanol treated mice then received a diet containing 3.5% (v/v) ethanol/water for 2 days, followed by a diet containing 7% ethanol for a further 5 days. The average intake was 22 to 30 g/kg/day. Control groups were pair-fed a control diet, balanced isocalorifically to match the ethanol containing diet. There were no differences in the weights of the ethanol-treated and control mice at the end of the treatment periods. When mice were withdrawn from the ethanol (between 07:00 AM and 09:00 AM), they were provided with tap water until their use in experiments.
(§3) Gabapentin was dissolved in saline, the solution being made freshly each testing day. Intraperitoneal (i.p.) injections of either gabapentin, 10 mL/kg, or saline, were given immediately on withdrawal from the ethanol treatment, in the studies on the handling responses and 2 hours prior to measurement of audiogenic seizures. In the experiments using the elevated plus maze, gabapentin or saline was injected i.p. at 8 hours after the removal of the ethanol diet, and the mice placed on the plus maze 60 minutes after the injections. In the studies on motor co-ordination (ataxia) and on locomotor activity, gabapentin or saline was injected to ethanol-naive chow fed mice immediately before testing. Measurements were then made for 60 minutes for the ataxia study, and for 30 minutes in the case of the locomotor activity.
At 8 and 12 hours from ethanol withdrawal, the susceptibility to sound-induced convulsions was measured in separate groups of ten mice. Mice were tested individually in a sound-proof perspex box 30 × 30 × 30 cm containing an electric door-bell. The bell was rung for 2 minutes or until the first signs of convulsions. The number of mice which responded by wild-running and clonic convulsions was counted. The mice were humanely killed as soon as a full convulsion was seen.
(§4) The results of the handling response ratings were compared by nonparametric two-way analysis of variance, designed for repeat measures on the same animal. The results of the area under the curve calculations were compared by the Mann-Whitney U-test. The convulsion incidence was analyzed by Fisher's exact probability test. The measurements from the elevated plus maze were subjected to one-way analysis of variance, followed by a Bonuferroni multiple comparison test, comparing all groups to the control group which received saline injections, and also both ethanol treated groups which received gabapentin to the ethanol treated group which received saline. The ataxia measurements were analyzed by the Mann-Whitney U-test and the locomotor activity by Student's t-test.

[3] = test system: handling responses following withdrawal of chronic ethanol treatment; assay: Handling-induced behavior after ethanol withdrawal in mice; format: in vivo, Male albino mice of the outbred TO strain
Procedure: as §1, §2, §3
Following withdrawal from the ethanol treatment at 09:00 AM, ratings of handling-induced behavior were assessed by the same experimenter, on the same mice, every hour for a period of 12 hours after withdrawal from ethanol.
Each mouse was lifted gently by the tail and held for 3 seconds, 30 cm under an "Anglepoise lamp" with a 60-watt bulb. The animal was gently rotated and its ensuing behavior rated on a scale of 1 to 5 according to the criteria in Table 2. Groups of 15 mice were used in each of the treatment groups, and the data were calculated as medians with interquartile ranges. The data were also expressed as the area under the curve at 4 and 12 hours from the withdrawal of the ethanol treatment.
as §4

SMILES: NCC1(CC(=O)O)CCCCC1 [Gabapentin, 1-(aminomethyl)-cyclohexane acetic acid]
- area of injury ([1]; 40 mg gabapentin, 1 mL of 70% ethanol): 24.4 ± 3.5 mm^2
- area of injury ([1]; 60 mg gabapentin, 1 mL of 70% ethanol): 18.7 ± 2.2 mm^2
- area of injury ([1]; 2 doses of 20 mg gabapentin, 3 hours apart, then 1 mL of 70% ethanol, assessed 30 min later): 2.1 ± 0.3 mm^2
- Percentage of Group Showing Clonic Convulsions ([2]; Gabapentin 5 mg/kg i.p. 2 hours before test): 92%
- Percentage of Group Showing Clonic Convulsions ([2]; Gabapentin 20 mg/kg i.p.): 70%
- Percentage of Group Showing Clonic Convulsions ([2]; Gabapentin 50 mg/kg i.p.): 40%
- Percentage of Group Showing Clonic Convulsions ([2]; Gabapentin 100 mg/kg i.p.): 30 p <0.01 c.f Ethanol/Saline group %
- convulsion incidence after the audiogenic stimulus ([2]; any of the doses tested, 12 hours from the end of the ethanol treatment (data not shown)): No effect
- area under the handling curve for the first 4 hours ([3]; gabapentin 20 mg/kg i.p., p <0.05): significant effects
- area under the handling curve for the first 4 hours ([3]; gabapentin 50 mg/kg i.p., p <0.05): significant effects
- duration of marked reduction in handling scores ([3]; gabapentin 100 mg/kg i.p.): around 4 hours
- ratings of behavior in response to gentle handling over the 12-hour testing period ([3]; gabapentin 100 mg/kg i.p. on withdrawal from ethanol, p <0.001): significantly reduced
- area under the handling curve for the first 4 hours ([3]; gabapentin 100 mg/kg i.p., p <0.01): significant effects
- ratings of behavior in response to gentle handling over the 12-hour period of measurement ([3]; lower doses of gabapentin (below 100 mg/kg) i.p. on withdrawal from ethanol): not significant
